Laboratory results taken from patent publication US20160083424A1, “COMPOSITIONS AND METHODS FOR TARGETING ANTIGEN-PRESENTING CELLS” (OSLO UNIVERSITETSSYKEHUS HF, priority 2013, published 2016).

Experiments:
Format in all cases: cell-based, human
[1] = test system: PBMCs; assay: Autologous stimulation of PBMCs with pp65 targeted peptides, [3H] thymidine incorporation; conditions: whole PBMCs, peptides at 4° C., 5 days at 37° C.
Description: PBMC from HLA-A2/CMV+ donors were thawed, washed and then incubated with the peptides (5 μg/ml) for 60 min at 4° C. Subsequently, the cells were washed twice and then plated at 2×10^5 cells per well in 96-well tissue culture plate. Cells were cultured for 5 days and subsequently they were pulsed with [^3H] thymidine and harvested 16 h later. In some experiments, the cells were cultured for 12 days and then stained with dextramers specific for pp65 NLVPMVATV (SEQ ID NO:19) epitope. Monocyte-depleted PBMCs were also used. To analyze primary immune responses against pp65 protein, PBMCs from HLA-A2+/CMV-negative donors were used. Autologous DCs were incubated with either NW-pp65 or GA-pp65 peptide (5 μg/ml) at 4° C. for 1 h, followed by three washes to remove unbound peptides. Subsequently, the cells were incubated with CD45RO-depleted PBMC (responder cells) and co-cultured for 10 days at ratio 1/10 (DC to responder cells) in X-vivo 15 medium supplemented with 10 ng/ml human IL-7 for 10 days. After 2 rounds of stimulation (8 days each) with autologous DC loaded with peptides, the cells were stained with dextramers specific for pp65 NLVPMVATV (SEQ ID NO:19) epitope. To test spontaneous uptake of peptides by DCs, PBMCs from HLA-A2+/CMV positive donors were incubated at 37° C. with various concentrations of untargeted or targeted pp65 peptide for 90 min. […]

[2] = test system: CD8 T cells against NLVPMVATV epitope; assay: Dextramer staining of CD8 T cells after PBMC stimulation with pp65 peptides
Description: PBMC from HLA-A2/CMV+ donors were thawed, washed and then incubated with the peptides (5 μg/ml) for 60 min at 4° C. Subsequently, the cells were washed twice and then plated at 2×10^5 cells per well in 96-well tissue culture plate. Cells were cultured for 5 days and subsequently they were pulsed with [^3H] thymidine and harvested 16 h later. In some experiments, the cells were cultured for 12 days and then stained with dextramers specific for pp65 NLVPMVATV (SEQ ID NO:19) epitope. Monocyte-depleted PBMCs were also used. To analyze primary immune responses against pp65 protein, PBMCs from HLA-A2+/CMV-negative donors were used. Autologous DCs were incubated with either NW-pp65 or GA-pp65 peptide (5 μg/ml) at 4° C. for 1 h, followed by three washes to remove unbound peptides. Subsequently, the cells were incubated with CD45RO-depleted PBMC (responder cells) and co-cultured for 10 days at ratio 1/10 (DC to responder cells) in X-vivo 15 medium supplemented with 10 ng/ml human IL-7 for 10 days. After 2 rounds of stimulation (8 days each) with autologous DC loaded with peptides, the cells were stained with dextramers specific for pp65 NLVPMVATV (SEQ ID NO:19) epitope. To test spontaneous uptake of peptides by DCs, PBMCs from HLA-A2+/CMV positive donors were incubated at 37° C. with various concentrations of untargeted or targeted pp65 peptide for 90 min. Subsequently, the cells were washed to remove unbound peptides and cultured at 37° C. for 12 days and then stained with dextramers specific for pp65 NLVPMVATV (SEQ ID NO:19) epitope.
Dextramers with CMV (NLVPMVATV) (SEQ ID NO:19) and HIV (ILKEPVHGV) (SEQ ID NO:22) HLA-A2 specific antigens were obtained from Immudex (Copenhagen, Denmark). Antibodies against human CD8, CD19 and CD56 were obtained from eBioscience (San Diego, Calif., USA). Briefly, around 10^6 cells were washed and resuspended in 50 μl staining buffer SB (PBS with 0.1% human serum albumin and 0.1% NaN3) containing 1 mg/ml aggregated α-globulin and then stained with dextramer for 10 min in the dark at room temperature. Subsequently, antibodies against CD8, CD19 and CD56 were added and incubation continued for additional 20 min. Cells were washed and resuspended in SB containing 1% paraformaldehyd and analyzed on a BD SLR II flow cytometer. The data were analyzed using FCS Express (De Novo Software, Los Angeles, Calif., USA).
Monocytes have the capacity to differentiate into macrophages or inflammatory DCs in-vitro and in-vivo (Auffray et al., (2009) Annu Rev. Immunol. 27, 669-92). Given that the NW peptide bound to blood monocytes, it was investigated whether this binding affects T-cell activation. Therefore, proliferation assays were performed with whole PBMCs. […]

[3] = test system: PBMC cultures from CMV-positive donors; assay: IFN-γ production in PBMC cultures
Description: (A) PBMCs from HLA-A2+/CMV-positive donors were incubated with the indicated fusion peptides for 60 min at 4° C., washed and then incubated at 37° C. for […]. T-cell proliferation was monitored by thymidine incorporation. (B) Dextramer staining of CD8 T cells against NLVPMVATV (SEQ ID NO:19) epitope. (C) As in A and B, but monocyte-depleted PBMCs were used. (D) INF-γ and IL-10 levels in PBMC culture supernatants determined by ELISA.
Next, the immunostimulatory potential of the NW-pp65 fusion peptide was evaluated by assessing its ability to stimulate the overall IFN-γ and IL-10 production in PBMC cultures from CMV-positive donors (FIG. 8D).

NWYLPWLGTNDWGCFTWPPWQAGILARNLVPMVATVQGQNLKYQEFFWDANDIYRIFAEL [NW-60-mer, 48-mer CMV pp65 peptide fused to NW peptide]
T-cell proliferation ([3H]-thymidine) [1]: stimulated T-cell proliferation
CTL response (dextramer staining) ([2]; monocyte-depleted PBMCs): 5.60%
CTL response (dextramer staining) ([2]; whole PBMCs, n=3): 8.85%
total amounts of secreted IFN-γ ([3]; ELISA of PBMC culture supernatants, relative to untargeted peptide, n=4): significant increase
proportion of CD8 and CD4 T cells that produced IFN-γ ([3]; PBMCs from HLA-A2+/CMV positive): significant increase
